Values joined by “and” are separate entries in the source; they are usually repeats but may differ in a detail not shown here. Equal values may be shown once. Read-outs that look alike come from different tables or passages of the source.
Experiments:
[1] = Reference trough level (cmin) at steady state; type: in vivo, human; conditions: minimum steady-state plasma concentration, calculated based on cmax; ref supplement [7], [2,5,24], [51]
[2] = Plasma concentrations in patients on oral antitumor therapy (LC-MS); type: in vivo, human; conditions: for Measured plasma concentration: 24 h, ±4 h of trough level: no; for Interpatient Coefficient of Variation [%]: patient plasma concentrations; for Median Concentration of All Samples [% of r.c.] / Min–Max Concentration [% of r.c.]: patient plasma, r.c. = respective cmin, all samples
From the text: The liquid chromatography-mass spectrometer system consisted of a Thermo Scientific Dionex UltiMate^TM 3000 with an integrated and temperature controlled autosampler (Thermo Fisher Scientific, Dreieich, Germany). An Acquity UPLC® BEH C18 column (2.1 × 100 mm, 1.7 µm; Waters, Milford, CT, USA) equipped with an Acquity UPLC® BEH C18 VanGuard^TM Pre-Column (2.1 × 5 mm, 1.7 µm; Waters, Milford, CT, USA) was used for chromatographic separation. The Q-Exactive^TM Focus mass spectrometer (MS) was hyphenated with a heated electrospray ionization (HESI) source (both from Thermo Fisher Scientific, Dreieich, Germany).
Chromatographic separation was achieved using a gradient elution with water containing 0.5% (v/v) FA (eluent A) and MeOH with 0.1% (v/v) FA (eluent B). The injection volume was 5 µL. The gradient program is shown in Supplement Table S2. The flow rate was 0.5 mL/min with a total run time of 15 min. The column heater was maintained at 50 °C and the autosampler temperature was 4 °C.
The following MS and HESI settings were maintained for all analyses: Sheath gas, auxiliary gas, and sweep gas flow rates were set to 60, 20, and 0, respectively. The spray voltage was 4000 V. Both capillary and auxiliary gas heater temperatures were set to 400 °C. High-purity nitrogen gas was used for the HESI source gases and for the bath gas of the C-trap. […] The HESI source was configured in positive mode for ionization.
The stock solutions were stored in glass vials at −80 °C. Aliquots of all stock solutions were combined in ACN (volumes of individual stock solution solvents are negligible) to obtain a standard solution of all analytes with an individual concentration of 200% of the respective trough level (cmin). Eight individual working standards were prepared by stepwise dilution of this standard solution with concentrations from 10 to 200% cmin (shown in Supplement Table S3). Furthermore, the four individual IS stock solutions were combined and diluted to 50 ng/mL with ACN. Calibration and validation standards were prepared by spiking 50 µL pooled human plasma with 10 µL of the respective working solution. Next, 250 µL IS solution (50 ng/mL in ACN) were added and vortexed vigorously. […] Then, 100 µL supernatant were transferred to 300 µL HPLC insert glass vials and diluted with 100 µL eluent (90% A/10% B). For blank samples, 50 µL pooled human plasma were combined with 10 µL ACN (instead of working solution) and prepared as described above. The calibration and validation standards were freshly prepared before every run. Patient plasma samples were prepared as calibration and validation standards (no additional processing step necessary), except for adding 10 µL ACN instead of 10 µL working standard. Before sample preparation, the frozen plasma samples were thawed in absence of light at 4 °C.
Blood samples were collected over the entire dosing interval from patients treated with an oral anticancer drug as listed in Supplement Table S4. […] A maximum of two samples at two different time points throughout the entire dosing interval were collected per patient. Treatment duration before collection was at least five half-lives (depending on the specific oral anticancer drug). The samples were collected in K3-EDTA tubes.
A total of 71 blood samples from 39 patients treated with 14 different oral anticancer drugs were collected (see Supplement Table S4 for details). All patients were recruited from independent outpatient clinics associated with the Comprehensive Cancer Center of the University Hospital Erlangen (CCC Erlangen-EMN). Of 71 blood samples, 41 were taken ±4 h of trough level (cmin).

[3] = Freeze-thaw stability in spiked pooled human plasma; type: physicochemical
[4] = Autosampler stability of ready for injection samples; type: physicochemical, human
[5] = parameters: method as in supplement references [1-55] as printed per drug; conditions: minimum steady-state blood plasma concentration after multiple dose administration; ref supplement references [1-55] per drug; cited from earlier work
[6] = 244 plasma samples; cited from earlier work
[7] = Short-term stability in spiked pooled human plasma (bench-top, 4 °C, 56 °C)
[8] = Long-term stability in spiked pooled human plasma

C=CC(=O)N1CCC[C@@H](n2nc(-c3ccc(Oc4ccccc4)cc3)c3c(N)ncnc32)C1 [Ibrutinib]
cmin [1]: 66 ng/mL | Measured plasma concentration ([2]; 420 mg/day): 3.2 ng/mL and 4.2 ng/mL | Measured plasma concentration ([2]; 560 mg/day): 115.2 ng/mL and 139.5 ng/mL | Interpatient Coefficient of Variation [%] [2]: 110.0% | Median Concentration of All Samples [% of r.c.] [2]: 110.1 % of r.c. | Min–Max Concentration [% of r.c.] [2]: 4.8–211.4 % of r.c. | Freeze-Thaw Accuracy [%] ([3]; validation standard 2xLLOV): 100.8% | Freeze-Thaw Accuracy [%] ([3]; validation standard LLOV): 100.2% | Freeze-Thaw Accuracy [%] ([3]; validation standard MOV): 93.3% | Freeze-Thaw Accuracy [%] ([3]; validation standard ULOV): 95.6% | Autosampler (24h, 4°C) Accuracy [%] ([4]; validation standard 2xLLOV): 101.4% | Autosampler (72h, 4°C) Accuracy [%] ([4]; validation standard 2xLLOV): 100.0% | Autosampler (24h, 4°C) Accuracy [%] ([4]; validation standard LLOV): 97.6% | Autosampler (72h, 4°C) Accuracy [%] ([4]; validation standard LLOV): 95.8% | Autosampler (24h, 4°C) Accuracy [%] ([4]; validation standard MOV): 103.0% | Autosampler (72h, 4°C) Accuracy [%] ([4]; validation standard MOV): 103.7% | Autosampler (24h, 4°C) Accuracy [%] ([4]; validation standard ULOV): 100.0% | Autosampler (72h, 4°C) Accuracy [%] ([4]; validation standard ULOV): 102.6%

C[C@]12CC[C@H](O)CC1=CC[C@@H]1[C@@H]2CC[C@]2(C)C(c3cccnc3)=CC[C@@H]12 [Abiraterone]
cmin [5]: 9.3 ng/mL | CV of plasma concentration at ±4 h of trough level ([2]; 14 patient samples): 140.8% | average concentration of the plasma samples at ±4 h of trough level ([2]; 14 patient samples): 10.2 ng/mL | range of plasma concentration at ±4 h of trough level ([2]; 14 patient samples): 0.4 to 59.5 ng/mL | Interpatient Coefficient of Variation [%] [2]: 187.3% | Median Concentration of All Samples [% of r.c.] [2]: 229.0 % of r.c. | Min–Max Concentration [% of r.c.] [2]: 4.3–1784.9 % of r.c. | Freeze-Thaw Accuracy [%] ([3]; validation standard 2xLLOV): 104.5% | Freeze-Thaw Accuracy [%] ([3]; validation standard LLOV): 105.9% | Freeze-Thaw Accuracy [%] ([3]; validation standard MOV): 101.5% | Freeze-Thaw Accuracy [%] ([3]; validation standard ULOV): 100.2% | average plasma concentration [6]: 9.3 ng/mL | range of plasma concentration [6]: 2.0 to 49.8 ng/mL | Short-time stability (1h, 56°C) Accuracy [%] ([7]; validation standard 2xLLOV): 46.5% | Short-time stability (24h, 4°C, without daylight) Accuracy [%] ([7]; validation standard 2xLLOV): 96.9% | Short-time stability (24h, RT, with daylight) Accuracy [%] ([7]; validation standard 2xLLOV): 101.7% | Short-time stability (24h, RT, without daylight) Accuracy [%] ([7]; validation standard 2xLLOV): 101.5% | Short-time stability (1h, 56°C) Accuracy [%] ([7]; validation standard LLOV): 49.9% | Short-time stability (24h, 4°C, without daylight) Accuracy [%] ([7]; validation standard LLOV): 104.6% | Short-time stability (24h, RT, with daylight) Accuracy [%] ([7]; validation standard LLOV): 105.6% | Short-time stability (24h, RT, without daylight) Accuracy [%] ([7]; validation standard LLOV): 105.2% | Short-time stability (1h, 56°C) Accuracy [%] ([7]; validation standard MOV): 40.7% | Short-time stability (24h, 4°C, without daylight) Accuracy [%] ([7]; validation standard MOV): 97.4% | Short-time stability (24h, RT, with daylight) Accuracy [%] ([7]; validation standard MOV): 103.1% | Short-time stability (24h, RT, without daylight) Accuracy [%] ([7]; validation standard MOV): 101.1% | Short-time stability (1h, 56°C) Accuracy [%] ([7]; validation standard ULOV): 34.9% | Short-time stability (24h, 4°C, without daylight) Accuracy [%] ([7]; validation standard ULOV): 95.4% | Short-time stability (24h, RT, with daylight) Accuracy [%] ([7]; validation standard ULOV): 103.3% | Short-time stability (24h, RT, without daylight) Accuracy [%] ([7]; validation standard ULOV): 102.0% | Long-term stability, 1 month, -20°C Accuracy [%] ([8]; validation standard 2xLLOV): 96.2% | Long-term stability, 1 month, -80°C Accuracy [%] ([8]; validation standard 2xLLOV): 93.5% | Long-term stability, 2 month, -20°C Accuracy [%] ([8]; validation standard 2xLLOV): 101.0% | Long-term stability, 2 month, -80°C Accuracy [%] ([8]; validation standard 2xLLOV): 100.1% | Long-term stability, 3 month, -20°C Accuracy [%] ([8]; validation standard 2xLLOV): 97.2% | Long-term stability, 3 month, -80°C Accuracy [%] ([8]; validation standard 2xLLOV): 97.9% | Long-term stability, 6 weeks, 4°C, without daylight Accuracy [%] ([8]; validation standard 2xLLOV): 101.6% | Long-term stability, 1 month, -20°C Accuracy [%] ([8]; validation standard LLOV): 96.5% | Long-term stability, 1 month, -80°C Accuracy [%] ([8]; validation standard LLOV): 93.2% | Long-term stability, 2 month, -20°C Accuracy [%] ([8]; validation standard LLOV): 97.0% | Long-term stability, 2 month, -80°C Accuracy [%] ([8]; validation standard LLOV): 105.8% | Long-term stability, 3 month, -20°C Accuracy [%] ([8]; validation standard LLOV): 101.7% | Long-term stability, 3 month, -80°C Accuracy [%] ([8]; validation standard LLOV): 106.0% | Long-term stability, 6 weeks, 4°C, without daylight Accuracy [%] ([8]; validation standard LLOV): 110.7% | Long-term stability, 1 month, -20°C Accuracy [%] ([8]; validation standard MOV): 95.8% | Long-term stability, 1 month, -80°C Accuracy [%] ([8]; validation standard MOV): 93.5% | Long-term stability, 2 month, -20°C Accuracy [%] ([8]; validation standard MOV): 101.2% | Long-term stability, 2 month, -80°C Accuracy [%] ([8]; validation standard MOV): 102.9% | Long-term stability, 3 month, -20°C Accuracy [%] ([8]; validation standard MOV): 101.8% | Long-term stability, 3 month, -80°C Accuracy [%] ([8]; validation standard MOV): 100.6% | Long-term stability, 6 weeks, 4°C, without daylight Accuracy [%] ([8]; validation standard MOV): 106.4% | Long-term stability, 1 month, -20°C Accuracy [%] ([8]; validation standard ULOV): 98.3% | Long-term stability, 1 month, -80°C Accuracy [%] ([8]; validation standard ULOV): 93.2% | Long-term stability, 2 month, -20°C Accuracy [%] ([8]; validation standard ULOV): 102.5% | Long-term stability, 2 month, -80°C Accuracy [%] ([8]; validation standard ULOV): 103.2% | Long-term stability, 3 month, -20°C Accuracy [%] ([8]; validation standard ULOV): 99.7% | Long-term stability, 3 month, -80°C Accuracy [%] ([8]; validation standard ULOV): 100.6% | Long-term stability, 6 weeks, 4°C, without daylight Accuracy [%] ([8]; validation standard ULOV): 102.8% | Autosampler (24h, 4°C) Accuracy [%] ([4]; validation standard 2xLLOV): 98.9% | Autosampler (72h, 4°C) Accuracy [%] ([4]; validation standard 2xLLOV): 97.9% | Autosampler (24h, 4°C) Accuracy [%] ([4]; validation standard LLOV): 90.8% | Autosampler (72h, 4°C) Accuracy [%] ([4]; validation standard LLOV): 94.9% | Autosampler (24h, 4°C) Accuracy [%] ([4]; validation standard MOV): 104.6% | Autosampler (72h, 4°C) Accuracy [%] ([4]; validation standard MOV): 101.6% | Autosampler (24h, 4°C) Accuracy [%] ([4]; validation standard ULOV): 100.2% | Autosampler (72h, 4°C) Accuracy [%] ([4]; validation standard ULOV): 104.1%

Reference: article PMC8699473, “An Easily Expandable Multi-Drug LC-MS Assay for the Simultaneous Quantification of 57 Oral Antitumor Drugs in Human Plasma” (Cancers, 2021)
